“Also recorded” adds a separate entry of the source.
System: contractile myotubes
Test: Veratridine added to electrically stimulated myotubes on microcantilevers, AFM laser detection
Type: cell-based, rat
Set-up: dose or concentration left out as unconfirmed
Details: myotubes 10 days in culture, 1 Hz stimulus, veratridine final concentration
Protocol: Skeletal muscle was dissected from the hind limb thighs of a rat fetus at embryonic day 18 (Charles River Laboratories, Wilmington, Mass.) according to a previously published protocol with some modification. Tissue samples were collected in a sterile 15-ml centrifuge tube containing 1 ml of calcium and magnesium free phosphate buffered saline (PBS). Tissue samples were enzymatically disassociated using 3 ml of 0.05% of trypsin-EDTA (Invitrogen, Carlsbad, Calif.) solution for 60 min in a 37° C. water bath with agitation of 100 rpm. After 60 min, the trypsin solution was removed and 6 ml of L15 media (Invitrogen, Carlsbad, Calif.) containing 10% fetal bovine serum (FBS) was added to terminate the trypsin action. The tissue was then mechanically triturated using a sterile narrow bore Pasteur pipette, allowed to settle for 3 min, and transferred to a 15-ml centrifuge tube. This was repeated three times. The dissociated tissue was then centrifuged at 300 g for 10 minutes at 4° C. on 6 ml of a 4% (wt/vol) cushion of bovine serum albumin (BSA). The pellet was resuspended in 10 ml L15+10% FBS and plated in uncoated 100-mm Petri dishes for 20-30 min depending on the amount of tissue, to allow contaminating fibroblasts to settle out. After 20-30 minutes the supernatant was layered on 6 ml of a 4% BSA cushion, and centrifuged at 300 g for 10 min at 4° C. […]

**Q.** How did the “ability to contract after the initial tetanic contraction” value turn out when `COc1ccc(C(=O)O[C@H]2CC[C@@]3(C)[C@@H]4CC[C@H]5[C@]6(O)C[C@H](O)[C@@]7(O)[C@@H](CN8C[C@@H](C)CC[C@H]8[C@@]7(C)O)[C@]6(O)C[C@@]53O[C@]24O)cc1OC` [veratridine] was run?
**A.** lost the ability to contract further; also recorded: lost the ability to further contract

Source: patent publication US10386360B2, “Bio-microelectromechanical system transducer and associated methods” (University of Central Florida Research Foundation, Inc., priority 2009, dated 2019)
